Measured values taken from patent publication US6797500B2, “Genes involved in cyclododecanone degradation pathway” (E. I. du Pont de Nemours and Company, priority 1999, dated 2004).

How the values were obtained:
[1] = tested on: monooxygenase and esterase on the S8C; experiment: Production of different chain length hydroxy acids from cyclic ketones by recombinant E. coli cosmid clone S8C (GC/MS); type: cell-based, Escherichia coli; details: cyclic ketone substrate 250 mg/L
Protocol: Transformed XL1-Blue MR cells were grown in M9 medium with 0.4% glucose as sole carbon source. Substrate for conversion was added at early log phase (OD=0.2) and cells were allowed to grow at 30° C. for 20 additional hours. Cells were then frozen and thawed once, centrifuged, and supernatant was filtered through 0.2 μm filters. Filtrate was prepared for GC/MS analysis as described below.
Filtrate was first acidified to pH 2 using concentrated HCl. The acidified sample was extracted twice with methylene chloride or ethyl acetate. The extracts were combined and dried by adding anhydrous magnesium sulfate. Magnesium sulfate was then removed by filteration using Whatman 3MM filter paper and the remaining solvent in the filtrate was evaporated under a gentle stream of nitrogen. The dried residues were resuspended in 0.5 mL of methylene chloride as underivatized samples or derivatized with 0.5 mL of BSTFA [bis (trimethylsilyl) trifluoroacetamide] silylation reagent (SUPELCO, Bellefonte, Pa.). The GC/MS analysis was performed using a Hewlett Packard 5989B MS Engine GC/MS instrument. Samples were injected onto a 30 meter MDN-5S capillary column (SUPELCO, 0.5 μm film thickness) for separation. GC/MS analysis was conducted using electron impact ionization (70 eV).
Example 8 explores whether the cyclic substrates could be expanded to cyclic ketones of different chain length and whether corresponding hydroxy acids could be produced. S8C was grown as described above except that different cyclic ketones were added. Cyclohexanone (C6), cycloheptanone (C7), cyclooctanone (C8), cyclodecanone (C10), cycloundecanone (C11), cyclododecanone (C12), cyclotridecanone (C13) and cyclopentadecanone (C15) were added as substrates at 250 mg/L concentration. Identification of the corresponding hydroxy acids produced was performed by GC/MS analysis as described above. Large amount of corresponding hydroxy acids were detected from S8C grown in the presence of C11, C12 and C13 cyclic ketones. Medium level of 15-hydroxy acid was detected from C15 cyclic ketone grown cells. Small amount of hydroxy acids was detected from cells grown on C6 and C10 cyclic ketones. […] The substrate range of the monooxygenase and esterase on the S8C appeared to favor long chain cyclic ketones (C>10). This correlated well with the growth substrate range ([…]) of the Rhodococcus ruber SC1. The ability of Rhodococcus ruber SC1 to grow on cyclic ketones of C11-C15 was likely due to the relatively broad substrate specificity of the single set of monooxygenase and esterase encoded on S8C clone (Table 3). It is possible that mixture of the large cyclic ketones may be used as substrates in a biotransformation to produce a mixture of long chain hydroxy acids or diacids for certain applications.

Rhodococcus ruber SC1 = experiment: Growth of Rhodococcus ruber SC1 on cyclic ketones as sole carbon and energy source; type: cell-based; details: for Growth of Rhodococcus ruber SC1: cyclic ketone as sole carbon and energy source
Protocol: Synthetic S12 medium was used to establish enrichment. S12 medium contains the following: 10 mM ammonium sulfate, 50 mM potassium phosphate buffer (pH 7.0), 2 mM MgCl2, 0.7 mM CaCl2, 50 μM MnCl2, 1 μM FeCl3, 1 μM […], 1.72 μM CuSO4, 2.53 μM CoCl2, 2.42 μM […], and 0.0001% FeSO4. The carbon sources were added directly to the S12 medium and the bacteria were grown in sealed culture flasks.
S12 agar was used to test isolates that utilize compounds as the sole source of carbon and energy. S12 agar was prepared by adding 1.5% Noble agar (DIFCO) to S12 medium. Bacteria growing on S12 agar were supplied with volatile compounds such as cyclododecanone by sprinkling solids of the volatile compound on the interior of the petri dish lid or 5 μl of other volatile liquid as vapor. The petri dish was sealed with parafilm and incubated with the lid on the bottom.
Rhodococcus ruber SC1 isolated from cyclododecanone (C12 cyclic ketone) enrichment culture was also tested for growth on cyclic ketones of different carbon numbers as sole carbon and energy source (Table 3). It grows well on cyclopentadecanone (C15 cyclic ketone), cyclotridecanone (C13 cyclic ketone), cyclododecanone (C12 cyclic ketone) and cycloundecanone (C11 cyclic ketone).

Structure (SMILES) | Corresponding Hydroxy Acid Produced by E. coli Cosmids [1] | Corresponding hydroxy acid detected (in words) [1] | Growth of Rhodococcus ruber SC1 on cyclic ketone (in words) (Rhodococcus ruber SC1) | Growth of Rhodococcus ruber SC1 (Rhodococcus ruber SC1)
O=C1CCCCCC1 [C7, cycloheptanone] | − | No hydroxy acid was detected | does not grow | −
O=C1CCCCCCCCCCCCCC1 [C15, cyclopentadecanone] | + | Medium level | grows well | +
O=C1CCCCCCCCC1 [C10, cyclodecanone] | +/− | Small amount | grows moderately well | +
O=C1CCCCCCCCCCC1 [C12, cyclododecanone] | ++ | Large amount | grows well | +
O=C1CCCCCCCCCCCC1 [C13, cyclotridecanone] | ++ | Large amount | grows well | +
O=C1CCCCC1 [C6, cyclohexanone] | +/− | Small amount | does not grow | −
O=C1CCCCCCCCCC1 [C11, cycloundecanone] | ++ | Large amount | grows well | +
O=C1CCCCCCC1 [C8, cyclooctanone] | − | No hydroxy acid was detected | does not grow | −
